Experimental data taken from PubChem BioAssay AID624167 (Sanford-Burnham Center for Chemical Genomics, 2012).
Activity calls are given as the source filed them.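 The calls were made as follows: active = mean IC50 for reducing PEG3 promoter reporter signal at or below a set limit, with IC50 above the limit in both counter screens; inactive = the rest, including counter screen hits.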

How the values were obtained:
PEG-3 [1] = target: PEG-3 (UniProt Q6IN02); assay: inhibition of PEG-3 promoter-driven reporter – cell-based, HeLa, luciferase, CREF/GAPDH counter-screen panel, dose response (AID 624167); conditions: HeLa PEG-Prom luciferase reporter, overnight, CREF/GAPDH counter-screens, mean of runs
Sequence of PEG-3 (UniProt Q6IN02) (Q6IN02 whole entry, looked up): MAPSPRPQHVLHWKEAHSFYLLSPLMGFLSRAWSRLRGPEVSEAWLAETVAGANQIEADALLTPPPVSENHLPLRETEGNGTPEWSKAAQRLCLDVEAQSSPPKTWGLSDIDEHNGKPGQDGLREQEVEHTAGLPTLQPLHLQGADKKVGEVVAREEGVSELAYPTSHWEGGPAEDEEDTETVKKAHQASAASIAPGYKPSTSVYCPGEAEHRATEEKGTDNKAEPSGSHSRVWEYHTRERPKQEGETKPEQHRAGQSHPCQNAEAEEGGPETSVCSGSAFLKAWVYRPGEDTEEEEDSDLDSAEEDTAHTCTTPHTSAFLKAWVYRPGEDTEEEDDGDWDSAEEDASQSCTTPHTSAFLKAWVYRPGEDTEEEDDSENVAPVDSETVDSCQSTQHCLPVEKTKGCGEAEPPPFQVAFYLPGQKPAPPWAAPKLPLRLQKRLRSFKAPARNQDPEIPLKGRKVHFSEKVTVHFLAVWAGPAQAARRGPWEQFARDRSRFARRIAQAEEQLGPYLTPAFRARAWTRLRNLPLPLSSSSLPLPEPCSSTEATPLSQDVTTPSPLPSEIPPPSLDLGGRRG

PEG-3 [2] = assay: as above; conditions: HeLa PEG-Prom luciferase reporter, overnight, CREF/GAPDH counter-screens
[3] = run 1, dose range 1, individual replicate IC50 per panel
[4] = run 2, dose range 1, individual replicate IC50 per panel

Compound | IC50 (PEG-3 [1]) | IC50 (PEG-3 [2]; [3]) [µM] | IC50 (PEG-3 [2]; [4]) [µM]
COc1cccc(NC(=O)CN(C)C(=O)c2cccnc2Nc2cccc(C(F)(F)F)c2)c1 | inactive | 22.5 | 24.2
COc1ccccc1NC(=S)NC1CCCCCCCCCCC1 | inactive | 31.2 | 42.3
C/C(=N\N=C(N)N)c1ccc(Cl)c(Cl)c1 | 18.7 µM | 20.3 | 17
CCN1CCN(C(c2ccc(C(F)(F)F)cc2)c2ccc3cccnc3c2O)CC1 (stereo unspecified) | 19.1 µM | 21.7 | 16.5
O=C(CCl)Nc1cccc(-c2cnc3ccccc3n2)c1 | inactive | > 100 | 13.2
CCCc1nc2oc3c(NCCCN(C)C)ncnc3c2c2c1CCCC2 | 14.7 µM | 19.5 | 9.84
CCCN(CC(=O)Nc1cc(Cl)cc(Cl)c1)CC(=O)Nc1ccc(F)c(F)c1F | inactive | 14.6 | 43.7
COc1ccccc1CCNC(=O)C1CCN(c2nnc(C)c3c(C)n(-c4ccc(C)cc4)nc23)CC1 | inactive | 19.4 | 24.1
O=C(c1cc(-c2cccs2)nn1-c1ccccc1)N1CCN(S(=O)(=O)c2ccccc2)CC1 | inactive | 8.84 | > 100
CC1CCCCN1S(=O)(=O)c1ccc(C(=O)N(CCCN(C)C)c2nc3ccc(Br)cc3s2)cc1 (stereo unspecified) | 15 µM | 19.1 | 10.9
NC(N)=N/N=C/c1cccc(Cl)c1Cl | 16 µM | 17.4 | 14.5
CCOc1cc(CNCCO)cc(Br)c1OCc1ccccc1Cl | inactive | 41.2 | 73.4
CNCC[C@H](Oc1cccc2ccccc12)c1cccs1 | 17.7 µM | 18.8 | 16.6
CCOC(=O)c1sc2nc(CSc3ccccc3)nc(N3CCCN(C)CC3)c2c1C | 19.4 µM | 19.4 | 19.4
CCN1C(=O)C(=Cc2cccc(OC)c2Oc2ccc([N+](=O)[O-])cc2[N+](=O)[O-])SC1=S | > 100 µM (inactive) | > 100 | > 100
CNC(=O)c1ccsc1NC(=O)c1ccc(S(=O)(=O)N2CCc3ccccc32)cc1 | 16.5 µM | 19.2 | 13.9
CN(C)CCNc1ncnc2c1ncn2[C@H]1CN(Cc2ccc(-c3ccccc3)cc2)C[C@@H](CO)O1 | inactive | 30.7 | 17.4
Cc1nc(N2CCN(S(=O)(=O)c3ccccc3C#N)CC2)c2c(-c3ccccc3)csc2n1 | > 100 µM (inactive) | > 100 | > 100
CN(C)S(=O)(=O)c1cccc(NC(=O)CSc2nc3c(cc2C#N)C(=O)CC(C)(C)C3)c1 | inactive | 21.6 | 19.6
COc1ccccc1CN(C)C(=O)c1cc(-c2cc(OC)c(OC)c(OC)c2)nc2ccccc12 | inactive | 19.2 | 40
CC(C)n1nc(C(=O)Oc2cc(Cl)ccc2Cl)c2ccccc2c1=O | inactive | 65.8 | > 100
NC(c1csc(Nc2nccc(C(F)(F)F)n2)n1)C1CCCCC1 (stereo unspecified) | 15.9 µM | 19.1 | 12.8
COC(=O)c1cn(NC(=O)c2cc([N+](=O)[O-])ccc2F)c(=O)c2ccccc12 | inactive | 26.1 | 46.5
Cc1nc2c(OCc3ccc(OC(F)F)cc3)cccn2c1N(C)C(=O)CCC1CCCC1 | inactive | 28.9 | 23.5
O=C(c1ccco1)N1CCN(c2ncnc3c2[nH]c2ccc(Br)cc23)CC1 | inactive | 24.9 | 24.1
CN(Cc1ccccc1F)C(=O)C(Cc1ccccc1)NC(=O)c1ccccc1 (stereo unspecified) | inactive | 32.3 | 95.6
CN(C)CCNc1ccc2ncn3c4ccc(O)cc4c(=O)c1c23 | inactive | 54 | < 0.2
